Values quoted from earlier work in paper PMC8670146 (Journal of Pharmaceutical and Biomedical Analysis, 2021).

Biological target: SARS-CoV-2 3CLpro (Severe acute respiratory syndrome coronavirus 2, UniProt P0DTD1)
Conditions: previous study

SMILES | in vitro 3CLpro inhibition activity
O=C(O)[C@H]1O[C@@H](Oc2cc3oc(-c4ccccc4)cc(=O)c3c(O)c2O)[C@H](O)[C@@H](O)[C@@H]1O [compound 1, Baicalin] | showed in vitro 3CLpro inhibition activity
O=c1cc(-c2ccccc2)oc2cc(O)c(O)c(O)c12 [compound 2, Baicalein] | showed in vitro 3CLpro inhibition activity
